Experimental data taken from ChEMBL document CHEMBL1126148, “Synthesis of halogenated trimetoquinol derivatives and evaluation of their beta-agonist and thromboxane A2 (TXA2) antagonist activities” (J Med Chem, 1992).

Assays:
[1] = biological target: Beta-1 adrenergic receptor (Cavia porcellus) (UniProt B0FL73); assay: (§1) Inhibitory activity against Beta-1 adrenergic receptor in guinea pig atria after treatment with the compound
[2] = species: Homo sapiens; assay: (§2) Potency ratio was measured as EC50 (trimetoquinol )/EC50 (drug); assay type: functional
[3] = species: Rattus norvegicus; assay: as §2; assay type: functional
[4] = biological target: T1, Thromboxane A2 receptor (Rattus norvegicus) (UniProt P34978); assay: (§3) Inhibitory activity against […]-mediated contraction of rat thoracic aorta (Thromboxane A2 tau receptor); assay type: tissue-based
T1 sequence (whole entry): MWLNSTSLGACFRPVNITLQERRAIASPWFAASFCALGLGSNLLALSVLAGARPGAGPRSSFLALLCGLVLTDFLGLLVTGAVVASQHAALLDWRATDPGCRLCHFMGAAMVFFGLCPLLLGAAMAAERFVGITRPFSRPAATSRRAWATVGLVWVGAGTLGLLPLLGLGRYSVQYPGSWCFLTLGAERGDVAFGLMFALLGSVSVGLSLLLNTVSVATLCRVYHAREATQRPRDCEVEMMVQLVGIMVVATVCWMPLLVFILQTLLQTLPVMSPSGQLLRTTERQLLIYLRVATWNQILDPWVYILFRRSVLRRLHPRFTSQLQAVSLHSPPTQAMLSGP

[5] = biological target: T1, Thromboxane A2 receptor (Rattus norvegicus); assay: as §3; assay type: functional, tissue-based
[6] = biological target: T2, Beta-1 adrenergic receptor (Cavia porcellus, UniProt B0FL73); assay: as §1
[7] = biological target: T3, Beta-2 adrenergic receptor (Cavia porcellus, UniProt Q8K4Z4); assay: Agonist activity at Beta-2 adrenergic receptor in guinea pig trachea after treatment with the compound
[8] = biological target: Beta-1 adrenergic receptor (Cavia porcellus) (UniProt B0FL73); assay: Maximum response of drug relative to the response of 10e-5 isoproterenol after treatment with the compound; assay type: functional
[9] = biological target: T2, Beta-1 adrenergic receptor; assay: Binding affinity against Beta-1 adrenergic receptor in guinea pig left ventricle
[10] = biological target: T3, Beta-2 adrenergic receptor; assay: Binding affinity against Beta-2 adrenergic receptor in guinea pig lung membranes; assay type: cell membranes, Membrane

Sequence of Beta-1 adrenergic receptor (Cavia porcellus) (B0FL73 1-467): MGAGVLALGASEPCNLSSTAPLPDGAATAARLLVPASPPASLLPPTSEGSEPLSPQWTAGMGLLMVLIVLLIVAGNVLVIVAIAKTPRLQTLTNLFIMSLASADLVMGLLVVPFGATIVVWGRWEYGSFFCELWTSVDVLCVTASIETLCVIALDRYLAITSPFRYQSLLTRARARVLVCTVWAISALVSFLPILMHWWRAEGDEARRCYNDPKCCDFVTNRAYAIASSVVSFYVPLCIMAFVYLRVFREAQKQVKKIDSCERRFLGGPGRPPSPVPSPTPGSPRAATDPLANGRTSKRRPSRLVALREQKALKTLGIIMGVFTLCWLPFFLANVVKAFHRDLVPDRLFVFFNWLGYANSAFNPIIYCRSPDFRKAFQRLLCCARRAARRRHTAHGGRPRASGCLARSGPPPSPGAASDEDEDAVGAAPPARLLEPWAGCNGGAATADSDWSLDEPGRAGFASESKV
T2 sequence (B0FL73 whole entry): as the sequence (B0FL73 1-467) above
T3 sequence (Q8K4Z4 whole entry): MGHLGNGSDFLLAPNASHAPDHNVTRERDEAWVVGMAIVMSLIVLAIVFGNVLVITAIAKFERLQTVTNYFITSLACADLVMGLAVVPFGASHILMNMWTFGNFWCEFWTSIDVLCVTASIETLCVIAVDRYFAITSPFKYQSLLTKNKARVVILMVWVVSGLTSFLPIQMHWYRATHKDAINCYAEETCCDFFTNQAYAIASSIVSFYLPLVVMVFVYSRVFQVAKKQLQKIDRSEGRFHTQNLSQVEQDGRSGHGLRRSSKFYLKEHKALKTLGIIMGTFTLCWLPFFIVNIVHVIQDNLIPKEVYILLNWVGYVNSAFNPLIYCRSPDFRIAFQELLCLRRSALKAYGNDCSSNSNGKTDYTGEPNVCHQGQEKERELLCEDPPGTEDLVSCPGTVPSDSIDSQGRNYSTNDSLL

Row | pKB [1] | pKB [4] | EC50 [6] [nM] | EC50 [7] [nM] | Intrinsic activity [8] | Structure (SMILES) | Potency ratio [2] | Potency ratio [3] | pKB [5] | Ki [9] [nM] | Ki [10] [nM]
1 | 5.32 | 3.7 |  |  |  | COc1cc(CC2NCCc3c2cc(O)c(O)c3C(F)(F)F)cc(OC)c1OC (configuration not stated) | 0.000525 | 0.00372 |  |  | 
2 |  |  |  |  |  | COc1cc(C[C@H]2NCCc3cc(O)c(O)c(F)c32)cc(OC)c1OC |  |  | 5.63 |  | 
3 |  | 3.98 | 501 | 240 |  | COc1cc(CC2NCCc3c(F)c(O)c(O)c(F)c32)cc(OC)c1OC (configuration not stated) | 0.00277 | 0.00708 |  |  | 
4 |  | 4.31 | > 31600 | 2240 | 0.39 | COc1cc(CC2NCCc3c2cc(O)c(O)c3I)cc(OC)c1OC (configuration not stated) | 0.002 | 0.07 |  |  | 
5 |  | 4.84 | 2950 | 1170 | 0.81 | COc1cc(CC2NCCc3cc(O)c(O)c(I)c32)cc(OC)c1OC (configuration not stated) | 0.09 | 0.24 |  |  | 

Row | Structure (SMILES) | pKB [1] | pKB [4] | EC50 [6] [nM] | EC50 [7] [nM] | Intrinsic activity [8] | Potency ratio [2] | Potency ratio [3] | pKB [5] | Ki [9] [nM] | Ki [10] [nM]
6 | COc1cc(C[C@@H]2NCCc3cc(O)c(O)cc32)cc(OC)c1OC [TRETOQUINOL] |  |  | 174 | 26.3 |  |  |  | 5.46 | 87.1 | 49
